We go through 5 molecules from patent publication US20250043290A1, “RNA SEQUENCES THAT INDUCE FLUORESCENCE OF SMALL MOLECULE FLUOROPHORES, MOLECULAR COMPLEXES, SENSORS, AND METHODS OF USE THEREOF” (CORNELL UNIVERSITY, priority 2021, published 2025).

Like-named read-outs stand apart in the source and are kept apart here. Marks after values point to notes of the source that are not given here.

A short description of series [1]: Photophysical properties of fluorophores and RNA-fluorophore complexes (Squash study). It counts as physicochemical. As to the method: All RNAs used for in vitro studies (except the initial hits from SELEX and the DE2-6 mutants) were purified using 8% denaturing PAGE (7M urea) and eluted in 0.3 M NaOAc (pH 5.2) overnight. The RNA was ethanol precipitated and quantified using absorbance in a NanoDrop 2000 spectrometer. All in vitro RNA properties were measured in 40 mM HEPES-KOH (pH 7.4), 100 mM KCl, 0.5 mM MgCl2 buffer unless specified.
Absorption, excitation, and emission spectra were measured using conditions where the RNA is in excess and the fluorophore is limiting to ensure that no free fluorophore contributes to the absorbance or fluorescence signal (FIGS. 7A-7D).
All quantum yields were determined by comparing each RNA-fluorophore complex with Broccli-DFHBI-1T or Corn-DFHO. All measurements for quantum yield were taken in the presence of excess RNA (10 μM final) compared to the fluorophores (0.2 μM final) to avoid interference from unbound fluorophore. The integral of the emission spectra for each Squash-fluorophore complex was compared with the corresponding integrals for Broccoli or Corn to calculate the quantum yield.

The conditions of series [2]: data from Song et al., cited from earlier work.
Series [3] in a line: Fluorescence activation of DFHBI-1T by aptamers in vitro. It counts as biochemical. The text has this: FIG. 1A is a schematic illustrating the strategy for evolution of the add A-riboswitch aptamer. Indicated are helices P1-P3, junctional strands (J1/2, J2/3, J3/1), kissing loop (gray lines), and adenine interactions with the aptamer (dotted line) (5′-CUUCAUAUAAUCCUAAUGAUAUGGUUUGGGAGUUUCUACCAAGAGCCUUAAACUCUUGAUUAUGAAG-3′ (SEQ ID NO:36)). The chemical structure of adenine and fluorophores are shown. Three regions (Region 1: 5′-UAU AAU-3′ (SEQ ID NO:37)), Region 2: 5′-AGU UUC UAC C-3′ (SEQ ID NO:38); Region 3: 5′-GAU UAU-3′ SEQ ID NO:39), which include J1/2, J2/3, and J3/1 were randomized in both size and sequence resulting in a sprouts/clips library for SELEX. Each nucleotide in the colored regions was replaced using a combination of random stochastic deletion (designated “N”) and random stochastic insertion (designated “n”). FIG. 1B is schematic showing a three dimensional structure of the add A-riboswitch aptamer highlighting the adenine-binding pocket (PDB 1Y26). The mutagenized regions are shown in the same color as FIG. 1A. Adenine is indicated by the arrow. FIG. 1C is a schematic illustrating the evolution of the add A-riboswitch aptamer into Squash, a DFHBI-1T-binding aptamer. The sprouts/clips library was selected for binding to DFHBI-conjugated agarose resulting in aptamer 9-1. Aptamer 9-1 was subjected to two consecutive rounds of directed evolution generating DE2-6. A pair of mutations was introduced in DE2-6 to strengthen the kissing loop interaction resulting in Squash. FIG. 1D is a graph showing fluorescence activation of DFHBI-1T by different aptamer intermediates that led to Squash. The values inside the bars indicate fold-activation of DFHBI-1T fluorescence by the corresponding aptamer. Data represent mean values±s.d. for n=3 independent experiments. […]
(§1) FIG. 6A is a bar graph showing fluorescence activation of DFHO by Squash and its precursors. Fluorescence was measured with 200 nM dye and 10 μM RNA (ex: 495 nm, em: 562 nm, except for Corn; ex: 505 nm, em: 545 nm). […] FIG. 6B is a bar graph showing fluorescence of initial hits after Round 7 of SELEX. In vitro transcribed RNAs from each hit (1 μM final) were mixed with DFHBI-1T (10 μM final) and the fluorescence was measured (ex: 452 nm, em: 503 nm, except for Broccoli; ex: 472 nm, em: 507 nm). […] FIGS. 6C-6D are bar graphs showing fluorescence measurements of the hits with DFHBI-1T after first (FIG. 6C) and second (FIG. 6D) round of directed evolution, measured as in FIG. 6B. […] FIG. 6E is a bar graph showing fluorescence measurements of hits using DFHO after the second round of directed evolution measured as in FIG. 6A. The fluorescence of the hits were normalized against Corn. […] FIG. 6F is a graph showing normalized fluorescence. […] Fluorescence was measured as in FIG. 6A. […]

Series [4] in a line: Fluorescence activation of DFHO by aptamers in vitro. In kind it is biochemical.
Source text: FIG. 2A is a schematic showing the secondary structure of Squash as predicted by mFOLD (Squash: 5′-GGCUACAAGGUGAGCCCAAUAAUACGGUUUGGGUUAGGAUAGGAAGUAGAGCCGUAAACUCUCUAAGCGGUAGUC-3′ (SEQ ID NO:1)). Squash retained the main structural elements of add A-riboswitch aptamer including a 3-way junction and predicted kissing loop interactions (residues at positions 30, 31, 56, and 57, solid gray line). An additional base pair in the kissing loop between loop L2 and L3 (residues at positions 29 and 58, dotted gray line) improved fluorescence activation. […] Shown are the excitation (Ex) and emission (Em) spectra of Squash bound to DFHBI-1T and DFHO (structures shown in inset). Spectra were measured using 20 μM RNA and 2 μM of the indicated fluorogenic dye. […] Fluorescence activation was measured by incubating 200 nM dye and 10 μM RNA. By using a large excess of RNA compared to the fluorophore, it was ensured that the fluorescence observed is from 200 nM RNA-fluorophore complex. Data represent mean values±s.d. for n=3 independent experiments. The values inside the bars indicate fold activation. AU, arbitrary units. FIG. 2D is a graph showing the dissociation constant (Kd) between Squash and DFHO as measured by titration of 50 nM Squash with increasing concentration of DFHO, and fitted using a one-site saturation model. […] FIG. 2E is a bar graph showing the results of an experiment in which Squash-DFHO fluorescence was measured in buffers containing exclusively the indicated cations. […] Similar to the parental add A-riboswitch aptamer (see Lemay et al., “Folding of the Adenine Riboswitch,” Chem. Biol. 13:857-868 (2006), which is hereby incorporated by reference in its entirety), Squash-DFHO has a low magnesium requirement for fluorescence activation. […]
as §1

The nature of series [5]: Fluorescence activation of DFAME by aptamers in vitro. It counts as biochemical. The settings on record: in vitro. The protocol:
To test whether Beetroot can activate DFHO, the fluorescence emission spectrum of the Beetroot-DFHO complex was measured. In brief, 20 μM Beetroot and 2 μM DFHO were mixed, and the fluorescence emission of the Beetroot-DFHO complex was measured. […] To test whether Beetroot can activate DFHBI-1T, the fluorescence emission spectrum of the Beetroot-DFHBI-1T complex was measured using the same protocol described in FIG. 32A. […] To test whether Beetroot can activate BI, the fluorescence emission spectrum of the Beetroot-BI complex was measured using the same protocol described in FIG. 32A. […] To test whether Corn can activate DFAME, the fluorescence emission spectrum of the Corn-DFAME complex was measured using the same protocol described in FIG. 32A.
The eluted RNAs were then ethanol precipitated, reverse transcribed, PCR amplified and in vitro transcribed to yield the pool for the next SELEX round. The presence of fluorescent RNA species in each pool was assessed by mixing 20 μM RNA and 10 μM DFAME and measuring fluorescence emission of this solution on a fluorometer in comparison with the fluorophore alone. At this point, RNAs were cloned into bacterial expression plasmids for FACS-based screening.
dsDNA encoding the top-performing RNA sequences from the brightest bacterial colonies was PCR amplified from the purified plasmids. […] The resulting RNA was then purified using Zymo RNA concentrator columns and quantified by absorbance using a Thermo Scientific NanoDrop 2000 spectrophotometer. For absorption, excitation and emission spectra measurements, “excess RNA” conditions and limiting amount of fluorophore was used to ensure that no free fluorophore contributes to the absorbance or fluorescence signal. The RNA concentration used for fluorescence and absorbance measurements was 20 μM and 50 μM, respectively, while the dye concentration was 2 μM and 5 μM, respectively. All in vitro RNA properties were measured in 40 mM HEPES pH 7.4, 100 mM KCl, 5 mM MgCl2 buffer, unless specified.

[6] abbreviates: 40 mM HEPES-KOH (pH 7.4), 100 mM KCl, 0.5 mM MgCl2.

`CN1C(=O)/C(=C/c2cc(F)c(O)c(F)c2)N=C1/C=N/O` [DFHO, 4-(3,5-difluoro-4-hydroxybenzylidene)-1-methyl-5-oxo-4,5-dihydro-1H-imidazole-2-carbaldehyde oxime]: the Emission maximum in series [1] (setting [6]) and in series [2] was 561 nm throughout. Further, the Excitation maximum in series [1] (setting [6]) and in series [2] was 473 nm in each case. Also, the Fluorescence quantum yield in series [1] (compared with Broccoli-DFHBI-1T or Corn-DFHO) and in series [2] was 0.0006 throughout. Besides, the Extinction coefficient is given as 27,000** M^−1cm^−1 in series [1] (free DFHO, at 495 nm) and 19,800 M^−1cm^−1 in series [2] (DFHO alone, at 505 nm, pH 7.4 buffer). Moreover, the “Brightness (extinction coefficient × quantum yield)” value is reported as 0.22 in series [1] (relative to Corn) and 0.16 in series [2] (relative to Corn-DFHO).

B1: DE1-2: brightest aptamer of first directed evolution, SEQ ID NO: 10 (nucleic acid)
chain: GCCUAGGCUUCAAGGUGAGCCCAAUAAUAUGGUUUGGGUUAGGAUAGGAAGAAGAGCCUUAAACUCUCUAAGCGGAAGUCUAGGC
modifications: listed as RNA, chemistry not given here
B1: the “Fold activation of DFHBI-1T fluorescence” value in series [3] is recorded as “approximately 790 fold”.

B2: DE2-6: aptamer of second directed evolution, SEQ ID NO: 11 (nucleic acid)
chain: GCCUAGGCUACAAGGUGAGCCCAAUAAUAUGGUUUGGGUUAGGAUAGGAAGUAGAGCCUUAAACUCUCUAAGCGGUAGUCUAGGC
modifications: listed as RNA, chemistry not given here
B2: the “Fold activation of DFHBI-1T fluorescence” value in series [3] is listed as “approximately 949 fold”. The “Fold activation of DFHO fluorescence” value in series [4] is approximately 492 fold.

B3: 10-1: RNA aptamer from 10 rounds of SELEX that binds DFAME, SEQ ID NO: 95 (nucleic acid)
chain: GCUUCCGUGCGACAUCAUGCGCGCGACUGCUUCGGCAGAGGUGGGUGGUGUGGAGGAGUAUCUG
modifications: RNA, backbone not given here
With B3, in series [5], the “Fold fluorescence enhancement of DFAME” value is recorded as “threefold”.

B4: 9-1: initial SELEX hit from sprouts/clips library, SEQ ID NO: 9 (nucleic acid)
chain: GCCUAGGCUUCAAGGUGGCCCAAUGAUAUGGUUUGGGUUAGGAUAGGAAUAAGAGCCUUAAACUCUUCAAAGCGGAAGUCUAGGC
modifications: listed as RNA, chemistry not given here
For the molecule B4, the “Fold activation of DFHBI-1T fluorescence” value in series [3] is approximately 521 fold.
